According to patent US10995091B2 (Proximagen, LLC, priority 2010, dated 2021):
Counter-ions that a name gives are not always drawn.

Each compound was assayed against T1, Human CXCR4 transfected HEK293 cells (Homo sapiens, UniProt P61073) (assay: CXCR4 functional calcium assay (calcium flux FLIPR, antagonism of SDF1 response)). Settings: CXCR4 functional activity, antagonism of SDF1 (EC50 concentration), read-out: CXCR4 fKi.
T1 construct: expressed in transfected cells; host or cells: HEK293
Type: cell-based
Outline: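 HEK293 cells stably transfected with human CXCR4 were loaded with 2 μM Fluo-4 AM in HBSS containing 2.5 mM probenecid, 0.1% BSA and 10 mM HEPES at pH 7.4 and 37° C. Compound was added first, then SDF1 at its EC50 concentration, and intracellular calcium fluorescence was followed on a FLIPR. Antagonist dose-response curves were fitted.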

T1 sequence (P61073 whole entry): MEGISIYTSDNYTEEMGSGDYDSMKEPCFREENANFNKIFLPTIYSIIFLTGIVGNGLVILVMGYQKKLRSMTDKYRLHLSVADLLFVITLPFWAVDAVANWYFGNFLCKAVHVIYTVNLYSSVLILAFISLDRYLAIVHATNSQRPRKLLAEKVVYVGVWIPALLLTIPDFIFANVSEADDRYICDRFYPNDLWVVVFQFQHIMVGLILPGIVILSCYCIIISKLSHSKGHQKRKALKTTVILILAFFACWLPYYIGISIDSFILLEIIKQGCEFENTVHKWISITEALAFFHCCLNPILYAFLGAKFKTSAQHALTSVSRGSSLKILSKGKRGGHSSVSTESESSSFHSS

Ki [nM] | Structure (SMILES)
100 to 500 | CC(C)N1CCC(N2CCC(C)N(c3cccc(C(=O)NCC4CC4)n3)CC2)CC1 (centres unmarked) [Example 174, N-(Cyclopropylmethyl)-6-{7-methyl-4-[1-(propan-2-yl)piperidin-4-yl]-1,4-diazepan-1-yl}pyridine-2-carboxamide]
20 to 100 | Cc1nc(-c2cccc(N3CCCN(C4CCN(C(C)C)CC4)CC3)n2)[nH]c1C [Example 118, 1-[6-(4,5-Dimethyl-1H-imidazol-2-yl)pyridine-2-yl]-4-[1-(propan-2-yl)piperidin-4-yl]-1,4-diazepane]
100 to 500 | CC(C)N1CCC(NCCCNc2cccc(C(=O)Nc3ccncc3)n2)CC1 [Example 239, 6-[(3-{[1-(Propan-2-yl)piperidin-4-yl]amino}propyl)amino]-N-(pyridin-4-yl)pyridine-2-carboxamide]
20 to 100 | CC(C)(C)N1CCC(N2CCCN(c3cccc(C(=O)NCC4CC4)n3)CC2)CC1 [Example 64, 6-[4-(1-tert-Butylpiperidin-4-yl)-1,4-diazepan-1-yl]-N-(cyclopropylmethyl)pyridine-2-carboxamide]
< 20 | CC(C)N1CCC(N2CCCN(c3cccc(-c4nc5cnccc5[nH]4)n3)CC2)CC1 [Example 106, 1-(6-{3H-Imidazo[4,5-c]pyridin-2-yl}pyridin-2-yl)-4-[1-(propan-2-yl)piperidin-4-yl]-1,4-diazepane]
20 to 100 | O=C(NCC1CC1)c1cccc(N2CCCN(C3CCN(C4CCCC4F)CC3)CC2)n1 (centres unmarked) [Example 73, N-(Cyclopropylmethyl)-6-{4-[1-(2-fluorocyclopentyl)piperidin-4-yl]-1,4-diazepan-1-yl}pyridine-2-carboxamide]
100 to 500 | CC(C)N1CCC(N2CCCN(c3cccc(-c4noc(-c5ccccn5)n4)n3)CC2)CC1 [Example 165, 1-[1-(Propan-2-yl)piperidin-4-yl]-4-{6-[5-(pyridine-2-yl)-1,2,4-oxadiazol-3-yl]pyridine-2-yl}-1,4-diazepane tetrahydrochloride]
500 to 1000 | CC(C)N1CCC(N2CCCC(Nc3cccc(C(=O)Nc4ccncc4)n3)C2)CC1 (centres unmarked) [Example 222, 6-({1-[1-(Propan-2-yl)piperidin-4-yl]piperidin-3-yl}amino)-N-(pyridin-4-yl)pyridine-2-carboxamide]
< 20 | [2H]C1([2H])CCN(c2cccc(C(=O)Nc3ccncc3)n2)CCN1C1CCN(Cc2ccccc2Cl)CC1 [Example 204, 6-(4-{1-[(2-Chlorophenyl)methyl]piperidin-4-yl}-5,5-dihydrogenio-1,4-diazepan-1-yl)-N-(pyridin-4-yl)pyridine-2-carboxamide]
100 to 500 | CC(C)N1CCC(N2CCN(c3cccc(C(=O)NCC4CC4)n3)CC(O)C2)CC1 (centres unmarked) [Example 183, N-(Cyclopropylmethyl)-6-{6-hydroxy-4-[1-(propan-2-yl)piperidin-4-yl]-1,4-diazepan-1-yl}pyridine-2-carboxamide]
500 to 1000 | CC(C)N1CCC(N2CCCN(c3cccc(-c4ncc(C(F)(F)F)[nH]4)n3)CC2)CC1 [Example 112, 1-[1-(Propan-2-yl)piperidin-4-yl]-4-{6-[4-(trifluoromethyl)-1H-imidazol-2-yl]pyridine-2-yl}-1,4-diazepane]
< 20 | [2H]C1([2H])CCN(C2CCN(Cc3ccc(F)cc3Cl)CC2)CCN1c1cccc(C(=O)Nc2ccncc2)n1 [Example 205, 6-(4-{1-[(2-Chloro-4-fluorophenyl)methyl]piperidin-4-yl}-7,7-dihydrogenio-1,4-diazepan-1-yl)-N-(pyridin-4-yl)pyridine-2-carboxamide]
100 to 500 | CCCCc1nc(-c2cccc(N3CCCN(C4CCN(C(C)C)CC4)CC3)n2)no1 [Example 157, 1-[6-(5-Butyl-1,2,4-oxadiazol-3-yl)pyridine-2-yl]-4-[1-(propan-2-yl)piperidin-4-yl]-1,4-diazepane]
20 to 100 | C[C@H](c1ccccc1)N1CCC(N2CCCN(c3cccc(C(=O)NCc4cccnc4)n3)CC2)CC1 [Example 92, 6-(4-{1-[(1R)-1-Phenylethyl]piperidin-4-yl}-1,4-diazepan-1-yl)-N-(pyridine-3-ylmethyl)pyridine-2-carboxamide]
100 to 500 | Cc1nc(-c2cccc(NCCNC3CCN(C4CCCC4)CC3)n2)[nH]c1C1CC1 [Example 232, 1-Cyclopentyl-N-(2-{[6-(5-cyclopropyl-4-methyl-1H-imidazol-2-yl)pyridin-2-yl]amino}ethyl)piperidin-4-amine]
100 to 500 | CC(C)N1CCC(N2CCCN(c3cccc(-c4nc5ccccc5s4)n3)CC2)CC1 [Example 151, 2-(6-{4-[1-(Propan-2-yl)piperidin-4-yl]-1,4-diazepan-1-yl}pyridine-2-yl)-1,3-benzothiazole]
< 20 | O=C(Nc1ccncc1)c1cccc(N2CC[C@@H](NC[C@H]3CCN(C4CCCC4)C3)C2)n1 [Example 227, 6-[(3R)-3-({[(3R)-1-Cyclopentylpyrrolidin-3-yl]methyl}amino)pyrrolidin-1-yl]-N-(pyridin-4-yl)pyridine-2-carboxamide]

Ki [nM] | Structure (SMILES)
20 to 100 | Cc1nc(-c2cccc(NCCNC[C@@H]3CCN(C4CCCC4)C3)n2)[nH]c1C1CC1 [Example 247, {[(3S)-1-Cyclopentylpyrrolidin-3-yl]methyl}(2-{[6-(5-cyclopropyl-4-methyl-1H-imidazol-2-yl)pyridin-2-yl]amino}ethyl)amine]
100 to 500 | O=C(NCCCn1ccnc1)c1cccc(N2CCCN(C3CCN(Cc4ccccc4Cl)CC3)CC2)n1 [Example 139, 6-(4-{1-[(2-Chlorophenyl)methyl]piperidin-4-yl}-1,4-diazepan-1-yl)-N-[3-(1H-imidazol-1-yl)propyl]pyridine-2-carboxamide]
100 to 500 | CC(C)N1CCC(N2CCCN(c3cccc(C(=O)N4CCc5ccccc54)n3)CC2)CC1 [Example 21, 1-[(6-{4-[1-(Propan-2-yl)piperidin-4-yl]-1,4-diazepan-1-yl}pyridin-2-yl)carbonyl]-2,3-dihydro-1H-indole]
< 20 | CCCc1[nH]c(-c2cccc(N3CCCN(C4CCN(C(C)C)CC4)CC3)n2)nc1C [Example 123, 1-[6-(5-Methyl-4-propyl-1H-imidazol-2-yl)pyridine-2-yl]-4-[1-(propan-2-yl)piperidin-4-yl]-1,4-diazepane]
100 to 500 | O=C(NCC1CC1)c1cccc(N2CCCN(C3CCN(Cc4cccc(Cl)c4)CC3)CC2)n1 [Example 134, 6-(4-{1-[(3-Chlorophenyl)methyl]piperidin-4-yl}-1,4-diazepan-1-yl)-N-(cyclopropylmethyl)pyridine-2-carboxamide]
100 to 500 | CC(C)N1CCC(N2CCCN(c3cccc(C(=O)N4CCc5ccccc5C4)n3)CC2)CC1 [Example 22, 2-[(6-{4-[1-(Propan-2-yl)piperidin-4-yl]-1,4-diazepan-1-yl}pyridin-2-yl)carbonyl]-1,2,3,4-tetrahydroisoquinoline]
100 to 500 | NC(=O)c1cccc(N2CCCN(C3CCN(Cc4ccccc4Cl)CC3)CC2)n1 [Example 136, 6-(4-{1-[(2-Chlorophenyl)methyl]piperidin-4-yl}-1,4-diazpan-1-yl)pyridine-2-carboxamide]
500 to 1000 | c1ccc2c(c1)CCC2N1CCC(N2CCCN(c3nccs3)CC2)CC1 (centres unmarked) [Example 126, 1-[1-(2,3-Dihydro-1H-inden-1-yl)piperidin-4-yl]-4-(1,3-thiazol-2-yl)-1,4-diazepane]
20 to 100 | CC(C)N1CCC(N2CCCN(c3cccc(C(=O)NCc4ccccn4)n3)CC2)CC1 [Example 33, 6-{4-[1-(Propan-2-yl)piperidin-4-yl]-1,4-diazepan-1-yl}-N-(pyridin-2-ylmethyl)pyridine-2-carboxamide]
20 to 100 | COc1ccc(NC(=O)c2cccc(N3CCCN(C4CCN(C(C)C)CC4)CC3)n2)cc1 [Example 26, N-(4-Methoxyphenyl)-6-{4-[1-(propan-2-yl)piperidin-4-yl]-1,4-diazepan-1-yl}pyridine-2-carboxamide]
100 to 500 | Cc1ccnc(N2CCCN(C3CCN(Cc4ccccc4Cl)CC3)CC2)c1 [Example 264, 1-{1-[(2-Chlorophenyl)methyl]piperidin-4-yl}-4-(4-methylpyridin-2-yl)-1,4-diazepane]
100 to 500 | CC(C)NCC(O)CN1CCCN(c2cccc(C(=O)NCc3cccnc3)n2)CC1 (centres unmarked) [Example 254, 6-{4-[2-Hydroxy-3-(propan-2-ylamino)propyl]-1,4-diazepan-1-yl}-N-(pyridin-3-ylmethyl)pyridine-2-carboxamide]
100 to 500 | O=C(Nc1ccncc1)c1cccc(N2CCCN(Cc3ccc(F)cc3Cl)CC2)n1 [Example 251, 6-{4-[(2-Chloro-4-fluorophenyl)methyl]-1,4-diazepan-1-yl}-N-(pyridin-4-yl)pyridine-2-carboxamide]
< 20 | CC(C)N1CCC(N2CCCN(c3cccc(-c4nc5cc(F)c(F)cc5[nH]4)n3)CC2)CC1 [Example 145, 5,6-Difluoro-2-(6-{4-[1-(propan-2-yl)piperidin-4-yl]-1,4-diazepan-1-yl}pyridine-2-yl)-1,3-benzodiazole]
500 to 1000 | Cc1cn[nH]c1-c1cccc(N2CCCN(C3CCN(C(C)C)CC3)CC2)n1 [Example 173, 1-[6-(4-Methyl-1H-pyrazol-3-yl)pyridin-2-yl]-4-[1-(propan-2-yl)piperidin-4-yl]-1,4-diazepane Trihydrochloride]
< 20 | O=C(NCC1CC1)c1cccc(N2CCCN(C3CCN(Cc4ccc(F)cc4Cl)CC3)CC2)n1 [Example 135]

Structure (SMILES) | Ki [nM]
O=C(Nc1ccncc1)c1cccc(N2CC3CCC(C2)N(C2CCN(Cc4ccc(F)cc4Cl)CC2)C3)n1 (centres unmarked) [Example 209, 6-(6-{1-[(2-Chloro-4-fluorophenyl)methyl]piperidin-4-yl}-3,6-diazabicyclo[3.2.2]nonan-3-yl)-N-(pyridin-4-yl)pyridine-2-carboxamide] | 100 to 500
CC(C)N1CCC(N2C3CCCC2CN(c2cccc(C(=O)NCC4CC4)n2)CC3)CC1 (centres unmarked) [Example 217, N-(Cyclopropylmethyl)-6-{10-[1-(propan-2-yl)piperidin-4-yl]-3,10-diazabicyclo[4.3.1]decan-3-yl}pyridine-2-carboxamide] | 100 to 500
